According to publication doi:10.1101/525105v1 (biorxiv, 2019):

Assays:
in vitro [1] = settings: human, lc5-ric cells
HIV-1IIIB = assay: microbe, parasite or virus in culture; parameters: species or system LC5-RIC; settings: Human immunodeficiency virus 1, 48 h, read-out: IC50 HIV-1IIIB
in vitro [2] = settings: human, tzm-bl cells
E. coli RNase H = biological target: T1, E. coli RNase H (Escherichia coli, UniProt P0A7Y4); assay: RNase H assay; assay type: biochemical
T1 sequence (P0A7Y4 1-155): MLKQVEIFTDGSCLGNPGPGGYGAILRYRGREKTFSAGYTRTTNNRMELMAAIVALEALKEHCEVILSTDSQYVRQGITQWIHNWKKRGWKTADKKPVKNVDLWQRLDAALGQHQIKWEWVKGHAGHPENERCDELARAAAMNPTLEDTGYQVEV

[3] = biological target: HIV-1 RT (Roche colorimetric reverse transcriptase assay kit) (HIV-1 M:B_HXB2R, UniProt P04585); assay: colorimetric RT polymerase assay; assay type: biochemical
AMV RNase H = assay: RNase H assay; assay type: biochemical, Avian myeloblastosis virus; settings: conditions not printed for this enzyme
[4] = biological target: HIV-1 integrase (XpressBio kit) (HIV-1 M:B_HXB2R, UniProt P04585); assay: HIV-1 integrase assay kit; assay type: biochemical

SMILES: CC(C)Oc1ccc2ccccc2c1-c1cccc2cccnc12 [B#59, 2-(Isopropyloxy)-1-(quinol-8-yl)naphthalene]
- CC50 at 48 h (in vitro [1]): 144 ± 7.7 µM
- IC50 (HIV-1IIIB): 39.5 ± 1.7 µM
- CC50 (in vitro [2]): > 100 µM

SMILES: CCN(CC)OC(=O)c1ccc2ccccc2c1-c1cccc2cccnc12 [B#60, 2-[(Diethylamino)oxycarbonyl]-1-(quinol-8-yl)naphthalene]
- CC50 at 48 h (in vitro [1]): 71.4 ± 2.8 µM
- IC50 (HIV-1IIIB): 50.1 ± 3.7 µM
- CC50 (in vitro [2]): 69.3 ± 4.9 µM

SMILES: Cc1cc(/C=C/C#N)cc(C)c1Nc1ccnc(Nc2ccc(C#N)cc2)n1 [rilpivirine, reference compound]
- IC50 (E. coli RNase H): > 10 µM
- IC50 [3]: ~0.001 µM
- IC50 (AMV RNase H): > 10 µM

SMILES: CC(C)Oc1ccc2cccnc2c1-c1cccc2ccccc12 [B#24, 7-(Isopropyloxy)-8-(naphth-1-yl)quinoline]
- CC50 at 48 h (in vitro [1]): 86.5 ± 3.7 µM
- IC50 (HIV-1IIIB): 7.6 ± 0.2 µM
- IC50 (E. coli RNase H): 44.3 ± 6.4 µM
- IC50 [3]: > 100 µM
- CC50 (in vitro [2]): 68.5 ± 17.1 µM
- IC50 [4]: > 100 µM
- IC50 (AMV RNase H): > 100 µM

SMILES: CC(C)Oc1ccc2cccnc2c1-c1cccc2cccnc12 [B#57, 7-(Isopropyloxy)-8,8′-biquinolyl]
- CC50 at 48 h (in vitro [1]): > 200 µM
- IC50 (HIV-1IIIB): > 200 µM
- IC50 (E. coli RNase H): > 100 µM
- IC50 [3]: > 100 µM
- CC50 (in vitro [2]): > 200 µM
- IC50 [4]: > 100 µM
- IC50 (AMV RNase H): > 100 µM

SMILES: CCN(CC)C(=O)Oc1ccc2cccnc2c1-c1cccc2cccnc12 [B#58, 7-[(Diethylamino)carbonyloxy]-8,8'-biquinolyl]
- IC50 (HIV-1IIIB): > 200 µM
- CC50 (in vitro [2]): > 200 µM
